The text below walks through data of ChEMBL document CHEMBL1201862, “PubChem BioAssay data set” (2004).

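Values below derive from 48-hour exposures of cells grown in 96-well plates, with endpoints linearly interpolated between the two concentrations bracketing the appropriate inhibition level. Here, GI50 denotes the concentration required for 50% inhibition of growth.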 The source made the active and inactive calls. Rule as the data show it: active = GI50 up to about 1.1 µM and inactive = higher. A value given as a limit tells only on which side of the number the result lay.

What all share (assay): growth of human tumour cells (NCI), 48 h
Test [1] concerns A549.
Test [2] concerns COLO 205.
Test [3] concerns DU-145.
The subject of test [4] is HT-29.
The test system of test [5] is K562.
Test [6] concerns KM12.
In test [7] the test system is LOX IMVI.
Test [8] deals with M14.
In test [9] the test system is NCI-H23.
In test [10] the test system is NCI/ADR-RES.
Test [11] has as its system OVCAR-3.
For test [12], the system named is OVCAR-4.
Test [13] has as its system OVCAR-8.
The subject of test [14] is RXF 393.
For test [15], the system named is SK-MEL-28.
The test system of test [16] is SK-MEL-5.
In test [17] the test system is SR.
For test [18], the system named is TK-10.
Test [19] relates to UACC-257.
In test [20] the test system is NCI-H522.

Consider `C=CC(=O)N1C/C(=C\c2ccc(OC)cc2)C(=O)/C(=C/c2ccc(OC)cc2)C1`, for which the GI50 was 2.47 µM (inactive) in test [1]; 2.99 µM (inactive) in test [2]; 3.91 µM (inactive) in test [3]; 0.78 µM (active) in [4]; 2.86 µM (inactive) in [5]; 1.93 µM (inactive) in [6]. The GI50 in [7] was 0.986 µM (active); in [8] it was 2.15 µM (inactive); in test [9] it was 2.01 µM (inactive); in [10] it was 3.12 µM (inactive); in test [11], 1.97 µM (inactive); in test [12], 2.36 µM (inactive). In addition, the GI50 is 2.88 µM (inactive) in test [13]; 1.61 µM (inactive) in test [14]; 2.81 µM (inactive) in [15]; 2.61 µM (inactive) in test [16]; 0.67 µM (active) in test [17]; 3.66 µM (inactive) in test [18]. Further, the GI50 in [19] was 3.64 µM (inactive).

As for `Cc1ccc(O)c(C2=CC3=NNC(=O)C3C(c3cccc(Cl)c3)C2)c1` (stereo unspecified), the GI50 is 52.5 µM (inactive) in test [1]; 16 µM (inactive) in test [2]; 43.4 µM (inactive) in test [3]; 25.9 µM (inactive) in test [4]; 37.1 µM (inactive) in test [5]; 21.8 µM (inactive) in test [6]. In addition, the GI50 is 23 µM (inactive) in [7]; 52 µM (inactive) in test [8]; 36.7 µM (inactive) in test [9]; 50.4 µM (inactive) in test [10]; 26.4 µM (inactive) in test [11]; 12.8 µM (inactive) in test [12]. For the same molecule, the GI50 is 26.2 µM (inactive) in test [13]; 2.56 µM (inactive) in test [14]; 28.1 µM (inactive) in test [15]; 32.1 µM (inactive) in test [16]; 29.4 µM (inactive) in test [17]; 28.1 µM (inactive) in [18]. In [19], the GI50 is 64.3 µM (inactive).

For `OC(c1ccccc1)C(F)(F)c1nc2ccccc2o1` (stereo unspecified), the GI50 in test [2] is > 100 µM (inactive); in test [3], 67.5 µM (inactive); in test [4], > 100 µM (inactive); in test [5] it was 27.9 µM (inactive); in [6], > 100 µM (inactive); in test [7], > 100 µM (inactive). The GI50 in test [8] was > 100 µM (inactive); in [9] it was > 100 µM (inactive); in test [10], 89.3 µM (inactive); in test [12], > 100 µM (inactive); in test [13], > 100 µM (inactive); in test [14] it was > 100 µM (inactive). Further, the GI50 in test [15] is > 100 µM (inactive); in test [16], 77.1 µM (inactive); in test [17], > 100 µM (inactive); in test [18], > 100 µM (inactive); in test [19], > 100 µM (inactive).

For `CCOC(=O)C1C(=O)CC1(C)C` (stereo unspecified), the GI50 in [1], in test [2], in [3], in test [4], in test [5] and in [6] was > 10 µM (inactive) each time. For the same molecule, the GI50 in test [7], in [8], in [9], in test [10], in test [11] and in test [12] was > 10 µM (inactive) in each case. In addition, the GI50 in [13], in test [14], in test [15], in test [16], in test [17] and in [18] was > 10 µM (inactive) throughout. Also, in test [19], the GI50 is > 10 µM (inactive).

Turning to `CCCCNC(=S)Nc1nc(C(=O)NNC(=S)NCc2ccccc2)cs1`, the GI50 in test [1] was 52.4 µM (inactive); in [2], 33.9 µM (inactive); in test [3], 39.6 µM (inactive); in test [4], 37.2 µM (inactive); in test [5] it was 34.4 µM (inactive); in test [6], 49.1 µM (inactive). The GI50 in [7] was 18.7 µM (inactive); in test [8], 38.6 µM (inactive); in test [9], 75 µM (inactive); in [20], 48.5 µM (inactive); in [10], 30.1 µM (inactive); in [11], 52.4 µM (inactive). Besides, the GI50 in test [12] is 35.3 µM (inactive); in test [13], 24.1 µM (inactive); in test [16], 16.3 µM (inactive); in test [17] it was 8.24 µM (inactive); in [18] it was 49.8 µM (inactive); in test [19], 20.2 µM (inactive).

Turning to `CC1(C)C2CCC(O)(C2)C1N` (stereo unspecified), the GI50 in test [1], in [2], in [3], in test [4], in test [5] and in test [6] was > 100 µM (inactive) in each case. Further, the GI50 in test [7], in test [8], in test [9], in test [10], in test [11] and in test [12] was > 100 µM (inactive) each time. Further, the GI50 in test [13], in test [14], in test [15], in test [16], in test [17] and in test [18] was > 100 µM (inactive) throughout. Besides, the GI50 in test [19] is > 100 µM (inactive).

With `Cn1c2ccccc2c(=O)c2cccc(C(=O)NC(CS)C(=O)O)c21` (stereo unspecified), the GI50 in test [1] is > 100 µM (inactive); in test [2], 67.5 µM (inactive); in test [3], > 100 µM (inactive); in test [4], > 100 µM (inactive); in test [5], 52.1 µM (inactive); in test [6], > 100 µM (inactive). Moreover, the GI50 in test [7] was 53.6 µM (inactive); in test [8] it was > 100 µM (inactive); in test [9], > 100 µM (inactive); in test [10] it was 23.6 µM (inactive); in test [11], > 100 µM (inactive); in test [12], > 100 µM (inactive). Moreover, the GI50 in [13] was > 100 µM (inactive); in test [15] it was > 100 µM (inactive); in [16], > 100 µM (inactive); in [17], 52.8 µM (inactive); in test [18] it was > 100 µM (inactive); in [19] it was > 100 µM (inactive).

In the case of `CCN1CCCC(C#N)(c2ccccc2)CC1` (stereo unspecified), the GI50 in test [1], in test [2], in [3], in test [4], in test [5] and in [6] was > 100 µM (inactive) in each case. In addition, the GI50 in [8], in [9], in test [10], in test [12], in test [13] and in test [14] was > 100 µM (inactive) throughout. The GI50 in test [15], in test [16], in test [17], in test [18] and in test [19] was > 100 µM (inactive) in each case.

For `Clc1cc2nnn(C3CCCCO3)c2cc1Cl` (stereo unspecified), the GI50 was 80.2 µM (inactive) in [1]; > 100 µM (inactive) in [2]; 99.1 µM (inactive) in test [3]; 63.1 µM (inactive) in test [4]; > 100 µM (inactive) in [5]; 86.3 µM (inactive) in [6]. Further, the GI50 in [8] is > 100 µM (inactive); in [9] it was > 100 µM (inactive); in test [20], 42.5 µM (inactive); in test [10], 48.3 µM (inactive); in [11], 69.3 µM (inactive); in [12] it was > 100 µM (inactive). Further, the GI50 was > 100 µM (inactive) in [13]; > 100 µM (inactive) in test [14]; 38.7 µM (inactive) in test [16]; 51.6 µM (inactive) in [17]; > 100 µM (inactive) in test [18]; 60.7 µM (inactive) in test [19].

For the molecule `C[C@H]1C(OCCOC2O[C@@H]3O[C@@]4(C)CC[C@H]5[C@H](C)CCC([C@H]2C)[C@@]35O4)O[C@@H]2O[C@@]3(C)CC[C@H]4[C@H](C)CCC1[C@@]24O3` (stereo partly specified), the GI50 is 39.8 µM (inactive) in [1]; 16.7 µM (inactive) in test [2]; 19.5 µM (inactive) in test [3]; 35.4 µM (inactive) in test [4]; > 100 µM (inactive) in test [5]; 27.5 µM (inactive) in [6]. The GI50 was 23.7 µM (inactive) in [7]; 32.1 µM (inactive) in test [8]; 31.6 µM (inactive) in test [9]; 25.1 µM (inactive) in [10]; 28.1 µM (inactive) in test [11]; 80.5 µM (inactive) in test [12]. Moreover, the GI50 in [13] was 5.3 µM (inactive); in [15], 61.5 µM (inactive); in test [16], 15.3 µM (inactive); in [17], 32.2 µM (inactive); in test [19] it was 33.1 µM (inactive).

For the molecule `O=C1CCC(N2C(=O)c3ccccc3C2=O)C(=O)N1` (stereo unspecified) [THALIDOMIDE], the GI50 in [1], in test [2], in test [3], in test [5], in test [6] and in [8] was > 100 µM (inactive) each time. Further, the GI50 in test [9], in test [20], in test [10], in test [12], in test [13] and in [14] was > 100 µM (inactive) each time. The GI50 in test [16], in [17] and in [19] was > 100 µM (inactive) in each case.
